Residue numbers refer to the chain shown, from its start. Values joined by “and” are separate entries in the source; they are usually repeats but may differ in a detail not shown here. Identical values can stand only once.
What was measured:
CYP2J2-R117E = target: T1, CYP2J2-R117E (Homo sapiens, UniProt P51589, R117E); experiment: biochemical
T1 sequence (P51589 1-502 R117E): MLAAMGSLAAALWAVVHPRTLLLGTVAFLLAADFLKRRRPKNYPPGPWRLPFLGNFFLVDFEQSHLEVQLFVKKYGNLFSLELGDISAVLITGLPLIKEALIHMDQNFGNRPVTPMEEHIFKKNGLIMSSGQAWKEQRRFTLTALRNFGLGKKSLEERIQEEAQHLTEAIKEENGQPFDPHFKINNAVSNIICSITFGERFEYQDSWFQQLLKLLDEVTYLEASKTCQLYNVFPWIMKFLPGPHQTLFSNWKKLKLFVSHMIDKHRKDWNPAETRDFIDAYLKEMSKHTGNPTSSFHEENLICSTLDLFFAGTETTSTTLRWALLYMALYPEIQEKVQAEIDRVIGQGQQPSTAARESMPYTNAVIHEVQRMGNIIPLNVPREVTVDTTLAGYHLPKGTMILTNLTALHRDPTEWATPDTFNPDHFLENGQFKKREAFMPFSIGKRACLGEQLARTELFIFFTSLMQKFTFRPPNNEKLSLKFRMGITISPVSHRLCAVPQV

CYP2J2-R117K = target: T2, CYP2J2-R117K (Homo sapiens, UniProt P51589, R117K); experiment: biochemical
T2 sequence (P51589 1-502 R117K): T1 sequence (P51589 1-502 R117E) with E117K

wild-type CYP2J2 = target: T3, wild-type CYP2J2 (Homo sapiens, UniProt P51589); conditions: cited from earlier work
T3 sequence (P51589 1-502): T1 sequence (P51589 1-502 R117E) with E117R

wild type CYP2J2 = system: wild type CYP2J2; parameters: method as in PMID 17705402; conditions: docked model, WT; values previously reported ref 50; cited from earlier work

Row | IC50 (CYP2J2-R117E) | IC50 (CYP2J2-R117K) | SMILES | IC50 (wild-type CYP2J2) | Fe-C distance, α carbon of R group (wild type CYP2J2) | Fe-C distance, β carbon of R group (wild type CYP2J2) | Fe-C distance, γ carbon of R group (wild type CYP2J2)
1 | 2100 ± 400 nM | 8600 ± 200 nM | CC(C)(C)c1ccc(CCCCN2CCC(C(O)(c3ccccc3)c3ccccc3)CC2)cc1 [Compound 3] | 3600 ± 700 nM | – | – | –
2 | 1000 nM and 500 nM | 1100 ± 200 nM | CCCc1ccc(C(=O)CCCN2CCC(C(O)(c3ccccc3)c3ccccc3)CC2)cc1 [Compound 2] | 400 ± 100 nM | 4.9 Å | 3.8 Å | 4.6 Å
3 | 500 nM and 1000 nM | ~1000 nM | CC(C)(C)c1ccc(C(=O)CCCN2CCC(C(O)(c3ccccc3)c3ccccc3)CC2)cc1 [Terfenadone 1, Terfenadone] | 700 ± 100 nM | – | – | –

Row | SMILES | IC50 (CYP2J2-R117E) | IC50 (CYP2J2-R117K) | IC50 (wild-type CYP2J2) | Fe-C distance, α carbon of R group (wild type CYP2J2) | Fe-C distance, β carbon of R group (wild type CYP2J2) | Fe-C distance, γ carbon of R group (wild type CYP2J2)
4 | CCCc1ccc(CCCCN2CCC(C(O)(c3ccccc3)c3ccccc3)CC2)cc1 [Compound 4] | 2900 ± 200 nM | 13200 ± 100 nM | 4500 ± 900 nM | – | – | –
